Results reported in patent US9868705B2, “Tetra-aryl cyclobutane inhibitors of androgen receptor action for the treatment of hormone refractory cancer” (The Board of Trustees of the University of Illinois, priority 2013, dated 2018).
Where a chain is given by its changes, count along the chain named.

Assays:
AR NTD/LBD interaction = target: T1, AR NTD/LBD interaction (Homo sapiens, UniProt P10275); experiment: AR NTD/LBD interaction reporter assay in CV-1 cells; assay type: cell-based
T1 construct: expressed in transfected cells; host or cells: CV-1
T1 sequence (P10275 1-920): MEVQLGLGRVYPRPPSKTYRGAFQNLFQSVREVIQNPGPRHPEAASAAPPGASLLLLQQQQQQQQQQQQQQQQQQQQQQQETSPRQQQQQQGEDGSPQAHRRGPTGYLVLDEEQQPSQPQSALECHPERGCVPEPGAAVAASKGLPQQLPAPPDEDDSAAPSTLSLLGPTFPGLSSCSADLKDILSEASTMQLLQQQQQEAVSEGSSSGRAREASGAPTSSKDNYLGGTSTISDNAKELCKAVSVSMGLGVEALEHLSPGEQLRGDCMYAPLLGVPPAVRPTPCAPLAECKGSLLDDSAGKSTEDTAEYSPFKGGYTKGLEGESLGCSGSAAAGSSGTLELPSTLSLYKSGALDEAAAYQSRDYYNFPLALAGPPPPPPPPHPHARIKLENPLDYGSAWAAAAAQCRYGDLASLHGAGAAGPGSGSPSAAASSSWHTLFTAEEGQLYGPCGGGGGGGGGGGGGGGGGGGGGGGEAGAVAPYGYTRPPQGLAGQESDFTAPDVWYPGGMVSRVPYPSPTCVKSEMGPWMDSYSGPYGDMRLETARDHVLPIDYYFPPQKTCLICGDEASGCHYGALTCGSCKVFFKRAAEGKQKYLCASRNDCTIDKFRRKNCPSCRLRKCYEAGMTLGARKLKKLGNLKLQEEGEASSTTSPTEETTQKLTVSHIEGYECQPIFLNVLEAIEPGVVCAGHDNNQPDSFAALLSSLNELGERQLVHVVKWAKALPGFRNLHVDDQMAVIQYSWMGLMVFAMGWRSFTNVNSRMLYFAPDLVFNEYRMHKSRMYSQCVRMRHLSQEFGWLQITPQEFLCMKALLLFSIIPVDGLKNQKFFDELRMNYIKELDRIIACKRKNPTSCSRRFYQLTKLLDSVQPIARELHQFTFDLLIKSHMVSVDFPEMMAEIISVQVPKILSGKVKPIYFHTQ
Text: Accordingly, we analyzed the disruption of AR/DNA binding using a luciferase reporter gene assay transfected with an AR-VP16 construct that is constitutively active upon DNA binding, regardless of the ability of AR to recruit transcriptional machinery (FIG. 40A). Simultaneously, we examined CV-1 cells transfected with an AR construct that is only transcriptionally active when there is a positive interaction between the NTD and C-terminal LBD ([…]) (FIG. 40B).

AR [1] = target: T2, AR (Homo sapiens, UniProt P10275); experiment: Western blot analysis of AR degradation; assay type: cell-based
T2 sequence (P10275 1-920): T1 sequence (P10275 1-920)

W741C AR = target: T3, W741C AR (Homo sapiens, UniProt P10275, W742C); experiment: MMTV-luciferase transcription assay in CV-1 cells, W741C AR
T3 sequence (P10275 1-920 W742C): T1 sequence (P10275 1-920) with W742C

VCaP cells = experiment: VCaP cell proliferation; assay type: cell-based
AR [2] = target: T2, AR; experiment: AR relative binding affinity (RBA)

## COc1cc([C@H]2[C@H](c3ccccc3)[C@H](c3cc(OC)nc(OC)n3)[C@H]2c2ccccc2)nc(OC)n1 [CB-22]
AR NTD/LBD interaction
  inhibition of the NTD/LBD interaction: inhibitory activity
AR [1]
  rate of receptor proteolysis: does not influence the rate of receptor proteolysis
W741C AR
  IC50: 2.36 µM
VCaP cells
  inhibition of VCaP cell proliferation: slow cell-growth in a dose-dependent manner
AR [2]
  AR RBA: 0.056%
